Test results: patent publication US20100273656A1, “COMPOSITION AND METHOD FOR SELECTIVE HERBICIDE” (priority 2002, published 2010)

What was measured:
[1] = tested on: white clover; assay: Example 18 FeHEDTA with Killex, white clover; assay type: in vivo
Experimental: (§1) Plants were fertilized with an all purpose water-soluble fertilizer mix of 20-20-20 (N-P-K; Plant-Prod®) as needed. All broadleaf weeds were grown individually in a 2¼-inch pot until they were a suitable size for herbicide tests (actual weed size is reported in examples below). Perennial ryegrass was also grown in 2¼-inch pots, however many grass seeds were sown in the pot to simulate a small section of turf. Grass plants were continually trimmed to a height of 4 cm, simulating that of a homeowner's lawn. For field tests, plots ¼ m^2 in size were marked out in areas containing the targeted broadleaf weed species growing in turf grass. Plots were continually mowed to simulate a homeowner's lawn. […] In all of the examples, the amounts of the various herbicide components are identified as a percent on a weight basis.
(§2) Killex® (Scotts Canada, Ltd., Ontario, Canada) is a commonly used selective lawn herbicide and was used as the commercial herbicide for herbicide combinations. The labeled dilution and application rates for Killex® are 6 ml into 1 L of solution (0.6%) applied at 200 ml/m^2.
(§3) All visual plant damage assessments were made using a quantitative rating scale; percent control relative to the untreated check (0=no effect; 100=plant death).
(§4) Materials and Methods: This trial was conducted in the greenhouse. Nine pots of white clover and 10 pots of perennial ryegrass were selected for each treatment. Herbicide solutions were prepared using deionized water. The treatments were applied using a hand-trigger sprayer at 200 ml/m^2. All treatments were applied once. Phytotoxicity (%) was assessed 4, 7, and 14 days after application (A4, A7, and A14).

[2] = tested on: perennial ryegrass; assay: Example 21 Fe chelates with Killex, perennial ryegrass; assay type: in vivo; settings: A29 = 29 days after treatment
Experimental: as §1, §2, §3
Materials and Methods: This trial was conducted in the greenhouse. […] Phytotoxicity (%) was assessed 29 days after treatment (A29).

[3] = tested on: dandelions; assay: Example 10 FeHEDTA at 0.1% and 0.2% Fe on potted dandelions; assay type: in vivo, Taraxacum officinale
Experimental: This test investigated using 0.1% (17.9 mM) and 0.2% (35.8 mM) iron, as FeHEDTA, to kill potted dandelions. The solutions contained 10% excess chelating agent.
Small (12 cm diameter) to medium (20 cm diameter) sized, greenhouse-grown dandelions were used. These sizes of dandelions are typically found in lawns. The plants were re-sprayed 7 days after the first spray.

[4] = tested on: perennial ryegrass; assay: Example 18 FeHEDTA with Killex, perennial ryegrass; assay type: in vivo
Experimental: as §1, §2, §3, §4

[5] = tested on: dandelion; assay: Example 14 field dandelion test of iron chelates and 50:50 mixtures; assay type: in vivo, Taraxacum officinale; design: Surviving Dandelions (%): concentration or dose not given beside the values
Description: Solutions were made of FeHEDTA (0.2% Fe), FeEDTA (0.2% Fe), FeEDDS (0.4% Fe), and FeMGDA (0.4% Fe). For the combinations, these 4 solutions were mixed together in a 1:1 ratio. The plots (0.25 m^2) were sprayed 3 times at weekly intervals at a rate of 0.1 L/m^2. The plots contained a mixture of dandelion and hard fescue turfgrass.

[6] = tested on: turf bentgrass (Agrostis sp.); assay: Example 11 field test, blackening of bentgrass leaf tips; assay type: in vivo
Experimental: The product was diluted 6 ml into 1 L of water solution and applied at rate of 200 ml/m^2, as per label instructions.
This test investigated the effect of FeHEDTA and a mixture of FeEDDS and FeMGDA on daisy (Bellis perennis), dandelion (Taraxacum officinale) and a turf bentgrass (Agrostis sp.). The chelating agents were used at one and a half times the molar amount of iron. […] The commercially prepared FeHEDTA product from the Monterey Chemical Company (CA, USA) was used as a standard. […] The solutions were made from NaEDDS (Octaquest E30, Octel) and NaMGDA (Trilon M liquid, BASF, Germany). Ammonium sulfate was added at a concentration of 1%. Killex (Solaris ON, Canada) was diluted and applied as per label instructions of 6 ml/L applied at 200 ml/m^2.
The daisy (0.25 m^2) and dandelion (0.5 m^2) test plots were in different areas of the bentgrass field. The dandelions were large, averaging 30 cm in diameter. The daisy patches were between 10 and 20 cm in diameter. The plants were sprayed weekly 4 times.

[7] = tested on: perennial ryegrass; assay: Example 19 FeHEDTA with Killex at reduced rates, perennial ryegrass; assay type: in vivo; settings: Killex ® 0%, 7 days after application
Experimental: as §1, §2, §3
as §4, with “Ten broadleaf plantain plants” for “Nine pots of white clover”, “5” for “10”, “7” for “4, 7, and 14”, “(A7).” for “(A4, A7, and A14).”

With `O=C([O-])CN(CCO)CCN(CC(=O)[O-])CC(=O)[O-].[Fe+3]` [FeHEDTA] as the compound, how does the “Phytotoxicity (%) against white clover” value ([1]; A4) read?
Its value is 27%.

And the “Phytotoxicity (%) against white clover” value ([1]; A7)?
The value was 50%.

What about the “Phytotoxicity (%) against white clover” value ([1]; A14) of the same compound?
Its value is 18%.

And the “Phytotoxicity (%) on perennial ryegrass” value [2]?
The value was 0%.

What about the “susceptibility of dandelions, in words” value ([3]; 12 to 20 cm diameter dandelions) of the same compound?
The value was “very susceptible”.

And the “Dead Dandelions (#/10)” value ([3]; dandelion diameter 12 cm, 7 + 6 days (re-sprayed after 7 days))?
The value was 10 #/10.

And the “Dead Dandelions (#/10)” value ([3]; dandelion diameter 12 cm, 6 days after spraying, listed as FeHEDTA (0.1% Fe))?
The value was 2 #/10.

What about the “Dead Dandelions (#/10)” value ([3]; dandelion diameter 12 cm, 6 days after spraying, listed as FeHEDTA (0.2% Fe)) of the same compound?
Its value is 8 #/10.

And the “Dead Dandelions (#/10)” value ([3]; dandelion diameter 16 cm, 7 + 6 days, listed as FeHEDTA (0.1% Fe))?
Its value is 3 #/10.

And the “Dead Dandelions (#/10)” value ([3]; dandelion diameter 16 cm, 7 + 6 days, listed as FeHEDTA (0.2% Fe))?
The value was 10 #/10.

And the “Dead Dandelions (#/10)” value ([3]; dandelion diameter 16 cm, 6 days after spraying, listed as FeHEDTA (0.1% Fe))?
The value was 1 #/10.

And the “Dead Dandelions (#/10)” value ([3]; dandelion diameter 16 cm, 6 days after spraying, listed as FeHEDTA (0.2% Fe))?
The value was 3 #/10.

And the “Dead Dandelions (#/10)” value ([3]; dandelion diameter 20 cm, 7 + 6 days, listed as FeHEDTA (0.1% Fe))?
Its value is 3 #/10.

What about the “Dead Dandelions (#/10)” value ([3]; dandelion diameter 20 cm, 7 + 6 days, listed as FeHEDTA (0.2% Fe)) of the same compound?
The value was 8 #/10.

What about the “Dead Dandelions (#/10)” value ([3]; dandelion diameter 20 cm, 6 days after spraying, listed as FeHEDTA (0.1% Fe)) of the same compound?
Its value is 0 #/10.

What about the “Dead Dandelions (#/10)” value ([3]; dandelion diameter 20 cm, 6 days after spraying, listed as FeHEDTA (0.2% Fe)) of the same compound?
Its value is 1 #/10.

What about the “Phytotoxicity (%) on perennial ryegrass” value ([4]; A4) of the same compound?
Its value is 2%.

And the “Phytotoxicity (%) on perennial ryegrass” value ([4]; A7)?
The value was 1%.

What about the “Phytotoxicity (%) on perennial ryegrass” value ([4]; A14) of the same compound?
The value was 2%.

And the “Area Covered by Dandelion (%)” value ([5]; day 0)?
The value was 40%.

And the “Dandelion Count (#/0.25 m^2)” value ([5]; day 0)?
The value was 63 #/0.25 m^2.

What about the “Dandelion Count (#/0.25 m^2)” value ([5]; day 6) of the same compound?
Its value is 60 #/0.25 m^2.

And the “Surviving Dandelions (%)” value ([5]; day 6)?
The value was 95%.

What about the “Area Covered by Dandelion (%)” value ([5]; day 6, sprayed 3 times at weekly intervals) of the same compound?
Its value is 20%.

What about the “Dandelion Necrosis (%)” value ([5]; day 11) of the same compound?
The value was 95%.

What about the “Dandelion Count (#/0.25 m^2)” value ([5]; day 13) of the same compound?
Its value is 40 #/0.25 m^2.

What about the “Surviving Dandelions (%)” value ([5]; day 13) of the same compound?
Its value is 63%.

What about the “Area Covered by Dandelion (%)” value ([5]; day 15) of the same compound?
Its value is 8%.

What about the “Dandelion Necrosis (%)” value ([5]; day 18) of the same compound?
Its value is 97%.

And the “Area Covered by Dandelion (%)” value ([5]; day 21)?
Its value is 2%.

What about the “Dandelion Count (#/0.25 m^2)” value ([5]; day 21) of the same compound?
The value was 26 #/0.25 m^2.

What about the “Surviving Dandelions (%)” value ([5]; day 21) of the same compound?
Its value is 41%.

And the “Dandelion Necrosis (%)” value ([5]; day 33)?
The value was 97%.

And the “Blackening of Bentgrass (Agrostis) Leaf Tips (0 to 9)” value (“Blackening of Bentgrass” for short) ([6]; day 1)?
Its value is 0.

What about the “Blackening of Bentgrass” value ([6]; day 6) of the same compound?
The value was 0.

And the “Blackening of Bentgrass” value ([6]; day 9)?
Its value is 0.

And the “Blackening of Bentgrass” value ([6]; day 16)?
Its value is 2.

And the “Blackening of Bentgrass” value ([6]; day 21)?
The value was 0.5 0 to 9.

And the “Blackening of Bentgrass” value ([6]; day 23)?
Its value is 0.

And the “Blackening of Bentgrass” value ([6]; day 30)?
The value was 0.

What about the “A7 Phytotoxicity (%) against perennial ryegrass” value (“A7 Phytotoxicity (%)” below) ([7]; listed as FeHEDTA 0.1% Fe) of the same compound?
The value was 1%.

What about the “A7 Phytotoxicity (%)” value ([7]; listed as FeHEDTA 0.2% Fe) of the same compound?
The value was 1%.

And the “A7 Phytotoxicity (%)” value ([7]; listed as FeHEDTA 0.4% Fe)?
The value was 2%.
